# Data: patent US6740637B1, “Chlorophyll and bacteriochlorophyll derivatives, their preparation and pharmaceutical compositions comprising them” (priority 1998, dated 2004)
# Entries after “also recorded” stand apart in the source; their conditions may differ.
# Tests used:
# [1] = cited from earlier work
# [2] = system: Staphylococcus Aureus Cowan I; format: cell-based
# Procedure: Light source: All the phototoxicity assays were performed with a home-built Xenon lamp with vertical emission providing 140 mW/cm^2 at the target level, using glass or a Cr2K2O7 liquid filter transferring light at […].
# Bacterial culture: Lyophilized Staphylococcus Aureus Cowan I, kindly provided by Prof. Z. Eshar, the Weizmann Institute, Israel were grown in liquid brain heart infusion (BHI) media for 18 hours at 37° C. with continuous shaking.
# Phototoxicity experiments: The standard experimental design consisted of four discrete steps: (i) Pre-incubation: Fresh bacterial suspensions (200 μl) in 0.1M carbonate buffer, pH 8.6, were incubated with the test sensitizer and/or inhibitor at the indicated concentrations for 1 hour in the dark. (ii) Wash: Unbound sensitizer was removed by washing and resuspension in the same buffer (x3). (iii) Illumination: The bacterial suspensions were exposed to light (140 mW/cm^2, λ>550 nm) for 5 min. (iv) Assessment of survival: Samples of the bacterial suspensions (30 μl) were cultured in 2 ml of BHI liquid media at 37° C. (shaking) for 2 hr. Bacterial density was monitored by turbidity measurements at λ=660 nm, taking OD660=1 for 5×10^7 bacteria/ml. Each experiment consisted of one experimental and three control groups:
# Experimental group: Bacteria were subjected to complete treatment (varying one experimental factor). Light control: irradiated bacteria, not treated with sensitizer. Dark control: non-irradiated bacteria, treated with sensitizer in the dark. Untreated control: values used for calculation of 100% survival.
# [3] = system: cell cultures; conditions: cited from earlier work
# [4] = in vivo; cited from earlier work
# [5] = system: MR2 melanoma tumors; test: Photodynamic treatment of melanoma tumor implanted in CD1 nude mouse, MRI follow up; format: in vivo
# Procedure: (a) Tumor implantation: M2R cells are routinely maintained as monolayers. The cells are scraped with the aid of a rubber policeman and suspended in normal saline, 1×10^6 cells/0.1 ml are injected subcutaneously on the flank or batch of C57Bl or CD1 nude male mice. […] A similar procedure is used in nude mice in which either mouse M2R or human (FO/1, MRI/H/221, HS695T amelanotic melanoma or SK/MEL/28) melanoma tumors are implanted.
# [6] = system: C57Bl mice; test: Toxicity of serine conjugates in mice in the absence of irradiation; format: in vivo, mouse; conditions: injections of up to 40 mg/kg body weight, up to 14 days, no irradiation
# Procedure: (d) Toxicity of the Chl and Bchl-serine conjugates Chla-L-Ser-OMe and Bchla-L-Ser-OMe in C57Bl mice under normal housing conditions in the absence of irradiation was estimated by injection of the compound dissolved in 10% ethanol/PBS. Control mice were injected with the vehicle only. […] This dose of drug was thus far the highest used and LD50 vs. EC50 of treatment (margins of therapeutic index) have yet to be determined.
structure (smiles),measurement,setting,value
"CC[C@H]1c2cc3[n-]c4c(c3C)C(=O)[C@H](C(=O)OC)c4c3nc(cc4[n-]c(cc(n2)[C@@H]1C)c(C(C)=O)c4C)[C@@H](C)[C@@H]3CCC(=O)OC[C@H](N)C(=O)OC.[Mg+2] [Bchla-L-Ser-OMe, L-seryl Methyl Ester Bacteriochlorophyllide a]",water solubility,[1],water soluble
same,concentration of maximal phototoxicity,[2],0.5 µM
same,phototoxicity LD50,[2]; as described in Example 17,70 nM
same,dark toxicity,"[2]; no light, up to highest tested concentration (10 μM)",no detectable dark toxicity
same,LD50 (phototoxicity in cell cultures),[3],50 nM
same,clearance from the animal body,[4],16 h
same,tumor by MRI after first treatment,"[5]; 50-150 μg into and around tumor, halogen light 60 min, 84 h later",essentially eliminated
same,tumor recurrence by MRI after second treatment,[5]; after a second treatment (2-3 weeks later),no recurrence
same,tumor recurrence by MRI after first treatment,[5]; two weeks after first treatment,small recurrence; also recorded: some recurrence
same,effect on behavior and well being of mice,[6],no noticeable effect on the behavior and well being of the mice
